Source: US6894061B2, “Substituted dihydrophenanthridinesulfonamides” (Wyeth, priority 2002, dated 2005)
pEC50, pIC50: −log10 of the molar value.

How the values were obtained:
ER/NF-κB = ER/NF-κB luciferase reporter in Ad5-wt-ERα infected HAECT-1 cells; type: cell-based, human; conditions: Homo sapiens, HAECT1, IL-1β; for Emax: read-out: ER/NFκB Efficacy (%)*; for pIC50: read-out: ER/NFκB IC50
Procedure: (§1) After four hours, cells were washed with EBM-BSA and incubated overnight in the same medium. Following overnight incubation, cells were washed with EBM-BSA and infected for 2 hours with 6 mL of a 1:10 dilution of Ad5-3x(NFκB).Luc virus (Adenovirus luciferase expression vector driven by 3 repeats of the MHC NFκb site 5′ to the thymidine kinase promoter) in EBM-BSA. After two hours, cells were washed and incubated at 34° C. for 1 hour. […] Control (no ER infection) cells were processed as above without Ad5-wt-hERα virus infection.
(§2) ERα infected HAECT-1 cells or control cells were thawed, diluted 42× in warm EBM-BSA, plated into 96-well plates at 0.1 mL/well and incubated for 4 hours at 34° C. Test compounds were added to the cells as 2× stocks in EBM-BSA containing 2 ng/mL IL-1β (R&D Systems) and the 96-well plates were returned to the incubator (34° C.). After 15-20 hours, 100 μL aliquots of media were removed from the cells and assayed for IL-6 content using a BioSource human IL-6 ELISA Kit. Cells were subsequently washed with 300 μL of Dulbecco's phosphate buffered saline and lysed in 50 μL of Cell Culture Lysis Reagent (Promega). Luciferase was determined on a Wallac Victor^2 Luminometer (Gaithersburg, Md.) using 10 μL of lysate and mixing with 100 μL of Promega Luciferase Assay reagent. Creatine kinase was determined from the rate of increase in A340 following addition of 100 μL of CK assay reagent (Sigma, cat. No 47-10) to the remainder of the cell lysate.
(§3) For IC50 and EC50 calculations, mean IL-6, luciferase or CK values versus log10 of the compound concentration were fitted to a four parameter logistic equation. The IC50/EC50 value, ‘Hill slope’, upper and lower limits of the curve were iteratively estimated.

creatine kinase = experiment: Creatine kinase (CK) test procedure in Ad5-wt-ERα infected HAECT-1 cells; type: cell-based, human; conditions: Homo sapiens, HAECT1, Ad5-wt-ERα infected HAECT-1 cells; for Emax at 10 µM / Emax: read-out: Creatin Kinase Efficacy (%); for pEC50: read-out: Creatin Kinase EC50
Procedure: as §1, §2, §3

pIC50 (ER/NF-κB) | melting point | pEC50 (creatine kinase) | SMILES | Emax (ER/NF-κB) | Emax at 10 µM (creatine kinase) | Emax (creatine kinase)
6.17 | 262 to 265 °C | – | O=S(=O)(c1ccc(O)cc1)N1c2ccc(Br)cc2-c2ccccc2C1c1ccccc1 (centres unmarked) [Example 12, 4-[(2-Bromo-6-phenylphenanthridin-5(6H)-yl)sulfonyl]phenol] | 93% | < 35% | –
< 5.00 | 174 to 177 °C | – | CCC1c2cc(F)ccc2-c2ccccc2N1S(=O)(=O)c1ccc(O)c(Cl)c1 (centres unmarked) [Example 46, 2-Chloro-4-[(6-ethyl-8-fluorophenanthridin-5(6H)-yl)sulfonyl]phenol] | – | < 35% | –
7.80 | 187 to 189 °C | – | CC(C)(C)[C@@H]1c2ccccc2-c2ccccc2N1S(=O)(=O)c1ccc(O)cc1 [Example 15, 4-{[(R)-6-tert-Butylphenanthridin-5(6H)-yl]sulfonyl}phenol] | 99% | < 35% | –
7.25 | 197 to 200 °C | 7.11 | CCC1c2cc(F)ccc2-c2cc(C)ccc2N1S(=O)(=O)c1ccc(O)cc1 (centres unmarked) [Example 51, 4-[(6-Ethyl-8-fluoro-2-methylphenanthridin-5(6H)-yl)sulfonyl]phenol] | 106% | – | 27%
6.92 | 213 to 215 °C | – | CC1c2cc(Cl)ccc2-c2cc(Br)ccc2N1S(=O)(=O)c1ccc(O)cc1 (centres unmarked) [Example 62, 4-[(2-Bromo-8-chloro-6-methylphenanthridin-5(6H)-yl)sulfonyl]phenol] | 90% | < 35% | –
< 5.00 | 258 °C | – | Cc1cc(S(=O)(=O)N2c3ccccc3-c3cccc(O)c3C2C)ccc1O (centres unmarked) [Example 38, 5-[(4-Hydroxy-3-methylphenyl)sulfonyl]-6-methyl-5,6-dihydrophenanthridin-7-ol] | – | < 35% | –
7.22 | 207 °C | – | CCC1c2cc(F)ccc2-c2cc(-c3ccccc3)ccc2N1S(=O)(=O)c1ccc(O)cc1 (centres unmarked) [Example 47, 4-[(6-Ethyl-8-fluoro-2-phenylphenanthridin-5(6H)-yl)sulfonyl]phenol] | 89% | < 35% | –
6.28 | 161 °C | – | CC1c2cc(F)ccc2-c2ccccc2N1S(=O)(=O)c1cccc(O)c1 (centres unmarked) [Example 48, 3-[(8-fluoro-6-methylphenanthridin-5(6H)-yl)sulfonyl]phenol] | 107% | < 35% | –
7.28 | 105 °C | – | CCC1c2ccccc2-c2cc(-c3cccc(O)c3)ccc2N1S(=O)(=O)c1ccc(O)cc1 (centres unmarked) [Example 30, 3-{6-Ethyl-5-[(4-hydroxyphenyl)sulfonyl]-5,6-dihydrophenanthridine-2-yl}phenol] | 76% | < 35% | –
< 5.00 | 182 to 184 °C | – | CC1c2ccccc2-c2ccccc2N1S(=O)(=O)c1ccc(O)c(CO)c1 (centres unmarked) [Example 26, 2-(Hydroxymethyl)-4-[(6-methylphenanthridin-5(6H)-yl)sulfonyl]phenol] | – | < 35% | –
5.76 | 211 to 213 °C | 5.53 | Cc1cc(S(=O)(=O)N2c3ccccc3-c3ccccc3C2C)cc(C)c1O (centres unmarked) [Example 59, 2,6-Dimethyl-4-[(6-methylphenanthridin-5(6H)-yl)sulfonyl]phenol] | 102% | – | 22%
7.40 | 176 to 178 °C | 6.38 | C[C@H]1c2ccccc2-c2ccccc2N1S(=O)(=O)c1ccc(O)cc1 (single isomer, unassigned) [Example 2] | 103% | – | 28%
6.09 | 181 °C | 6.37 | CCC1c2cc(F)ccc2-c2ccccc2N1S(=O)(=O)c1ccc(O)c(C)c1 (centres unmarked) [Example 41, 4-[(6-Ethyl-8-fluorophenanthridin-5(6H)-yl)sulfonyl]-2-methylphenol] | 75% | – | 24%
6.12 | 128 °C | – | CCC1c2cc(F)ccc2-c2ccccc2N1S(=O)(=O)c1ccc(OC(=O)CC(C)(C)C)cc1 (centres unmarked) [Example 53, 4-[(6-Ethyl-8-fluorophenanthridin-5(6H)-yl)sulfonyl]phenyl 3,3-dimethylbutanoate] | 76% | < 35% | –
6.37 | 111 to 112 °C | 6.08 | CCC(=O)Oc1ccc(S(=O)(=O)N2c3ccccc3-c3ccc(F)cc3C2CC)cc1 (centres unmarked) [Example 54, 4-[(6-Ethyl-8-fluorophenanthridin-5(6H)-yl)sulfonyl]phenyl propionate] | 87% | – | 24%
6.59 | 111 to 113 °C | – | Cc1ccc2c(c1)C(C)N(S(=O)(=O)c1ccc(O)cc1)c1ccccc1-2 (centres unmarked) [Example 60, 4-[(6,8-Dimethylphenanthridin-5(6H)-yl)sulfonyl]phenol] | 95% | < 35% | –
7.21 | 208 to 210 °C | – | O=S(=O)(c1ccc(O)cc1)N1c2ccccc2-c2ccccc2[C@H]1c1ccccc1 (single isomer, unassigned) [Example 10] | 95% | < 35% | –
6.17 | 178 to 180 °C | – | CCCCC1c2ccccc2-c2cc(Br)ccc2N1S(=O)(=O)c1ccc(O)cc1 (centres unmarked) [Example 8, 4-[(2-Bromo-6-butylphenanthridin-5(6H)-yl)sulfonyl]phenol] | 89% | < 35% | –
7.08 | 167 to 169 °C | – | CCC1c2c(C)cccc2-c2ccccc2N1S(=O)(=O)c1ccc(O)cc1 (centres unmarked) [Example 42, 4-[(6-ethyl-7-methylphenanthridin-5(6H)-yl)sulfonyl]phenol] | 99% | < 35% | –
5.84 | 172 to 174 °C | 6.12 | CC1c2ccccc2-c2ccccc2N1S(=O)(=O)c1ccc(O)c(F)c1 (centres unmarked) [Example 56, 2-Fluoro-4-[(6-methylphenanthridin-5(6H)-yl)sulfonyl]phenol] | 100% | – | 34%
6.97 | 192 to 194 °C | 6.12 | CC(C)(C)C1c2ccccc2-c2ccccc2N1S(=O)(=O)c1ccc(O)cc1 (centres unmarked) [Example 14, 4-[(6-tert-Butylphenanthridin-5(6H)-yl)sulfonyl]phenol] | 105% | – | 50%
6.16 | 212 °C | – | CC1c2ccc(O)cc2-c2ccccc2N1S(=O)(=O)c1ccc(O)cc1 (centres unmarked) [Example 36, 5-[(4-Hydroxyphenyl)sulfonyl]-6-methyl-5,6-dihydrophenanthridin-9-ol] | 60% | < 35% | –
6.37 | 196 to 198 °C | 6.00 | CC1c2ccccc2-c2ccccc2N1S(=O)(=O)c1ccc(O)cc1 (centres unmarked) [Example 1, 4-[(6-Methylphenanthridin-5(6H)-yl)sulfonyl]phenol] | 94% | – | 39%
6.32 | 193 to 195 °C | – | Cc1cc(S(=O)(=O)N2c3ccc(Br)cc3-c3ccccc3C2C)ccc1O (centres unmarked) [Example 6, 4-[(2-Bromo-6-methylphenanthridin-5(6H)-yl)sulfonyl]-2-methylphenol] | 92% | < 35% | –
7.27 | 201 to 203 °C | 7.32 | CC1c2ccccc2-c2cc(Br)ccc2N1S(=O)(=O)c1ccc(O)cc1 (centres unmarked) [Example 4, 4-[(2-Bromo-6-methylphenanthridin-5(6H)-yl)sulfonyl]phenol] | 101% | – | 23%
6.60 | 218 to 220 °C | – | CCC1c2ccccc2-c2cc(-c3cccc4c3oc3ccccc34)ccc2N1S(=O)(=O)c1ccc(O)cc1 (centres unmarked) [Example 31, 4-[(2-Dibenzo[b,d]furan-4-yl-6-ethylphenanthridin-5(6H)-yl)sulfonyl]phenol] | 108% | < 35% | –
7.24 | 245 to 247 °C | – | CC(C)(C)C1c2ccccc2-c2cc(Br)ccc2N1S(=O)(=O)c1ccc(O)cc1 (centres unmarked) [Example 17, 4-[(2-Bromo-6-tert-butylphenanthridin-5(6H)-yl)sulfonyl]phenol] | 76% | < 35% | –
6.77 | 210 to 212 °C | 6.93 | O=S(=O)(c1ccc(O)cc1)N1c2ccccc2-c2ccccc2[C@@H]1c1ccccc1 (single isomer, unassigned) [Example 11] | 115% | – | 37%
